Results taken from PubChem BioAssay AID1918996 (Molecular Pharmacology Branch, DTP, NCI, 2023).
Values joined by “and” are separate entries in the source; they are usually repeats but may differ in a detail not shown here. Equal entries are not always repeated.

Test system: 349418-098-R-PDC complex spheroid growth
Assay: Anticancer human tumor 349418-098-R-PDC patient-derived lung adenocarcinoma cell line growth inhibition [AhR]
Details: for viability, T/C: stronger effect = lower value
How it was run: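 Spheroids combined tumor cells with HUVEC endothelial cells and human MSCs as stroma. AhR antagonists were paired with standard or investigational drugs, each dosed in half-log steps down from near clinical Cmax, or from 10 microM where Cmax was unknown.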

[1] = curve of first compound, second compound 0.1 µM
[2] = curve of first compound, second compound 0.316 µM
[3] = curve of first compound, second compound 1 µM
[4] = curve of first compound, second compound 3.16 µM
[5] = curve of first compound, second compound 10 µM
[6] = second compound 0.1 µM, first compound 0.0316 µM
[7] = second compound 0.1 µM, first compound 0.1 µM
[8] = second compound 0.316 µM, first compound 0.0316 µM
[9] = second compound 0.316 µM, first compound 0.1 µM
[10] = second compound 1 µM, first compound 0.0316 µM
[11] = second compound 1 µM, first compound 0.1 µM
[12] = second compound 3.16 µM, first compound 0.0316 µM
[13] = second compound 3.16 µM, first compound 0.1 µM
[14] = second compound 10 µM, first compound 0.0316 µM
[15] = second compound 10 µM, first compound 0.1 µM
[16] = second compound 0.1 µM, first compound 0.316 µM
[17] = second compound 0.1 µM, first compound 1 µM
[18] = second compound 0.1 µM, first compound 3.16 µM
[19] = second compound 0.1 µM, first compound 10 µM
[20] = second compound 0.316 µM, first compound 0.316 µM
[21] = second compound 0.316 µM, first compound 1 µM
[22] = second compound 0.316 µM, first compound 3.16 µM
[23] = second compound 0.316 µM, first compound 10 µM
[24] = second compound 1 µM, first compound 0.316 µM
[25] = second compound 1 µM, first compound 1 µM
[26] = second compound 1 µM, first compound 3.16 µM
[27] = second compound 1 µM, first compound 10 µM
[28] = second compound 3.16 µM, first compound 0.316 µM
[29] = second compound 3.16 µM, first compound 1 µM
[30] = second compound 3.16 µM, first compound 3.16 µM
[31] = second compound 3.16 µM, first compound 10 µM
[32] = second compound 10 µM, first compound 0.316 µM
[33] = second compound 10 µM, first compound 1 µM
[34] = second compound 10 µM, first compound 3.16 µM
[35] = second compound 10 µM, first compound 10 µM
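Note: spheroids exposed to agents for seven days before luminescence viability read.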
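Throughout, for viability, T/C: spheroids also contain HUVEC endothelial cells and human MSC stroma.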

Row | Compound | IC50 [1] [nM] | IC50 [2] [nM] | IC50 [3] [nM] | IC50 [4] [nM] | IC50 [5] [nM] | viability, T/C [6] [%] | viability, T/C [7] [%] | viability, T/C [8] [%] | viability, T/C [9] [%] | viability, T/C [10] [%] | viability, T/C [11] [%] | viability, T/C [12] [%] | viability, T/C [13] [%] | viability, T/C [14] [%] | viability, T/C [15] [%] | viability, T/C [16] [%] | viability, T/C [17] [%] | viability, T/C [18] [%] | viability, T/C [19] [%] | viability, T/C [20] [%] | further results
1 | CC[C@@]1(O)C(=O)OCc2c1cc1n(c2=O)Cc2cc3c(CN(C)C)c(O)ccc3nc2-1 + Cc1cncc(-c2nc(NCCc3c[nH]c4ccccc34)c3ncn(C(C)C)c3n2)c1 | 15.3 | 14.1 | 14.4 | < 0.316 | < 0.316 | 29.4 | 6.14 | 23.8 | 6.37 | 24.5 | 7.22 | 10.1 | 5.91 | 1.32 | 1.19 | – | – | – | – | – | viability, T/C (second compound 0.1 µM, first compound 0.000316 µM): 102%; viability, T/C (second compound 0.1 µM, first compound 0.001 µM): 93.9%; viability, T/C (second compound 0.1 µM, first compound 0.00316 µM): 91.6%; viability, T/C (second compound 0.1 µM, first compound 0.01 µM): 60.7%; viability, T/C (second compound 0.316 µM, first compound 0.000316 µM): 87.3%; viability, T/C (second compound 0.316 µM, first compound 0.001 µM): 94%; viability, T/C (second compound 0.316 µM, first compound 0.00316 µM): 86.4%; viability, T/C (second compound 0.316 µM, first compound 0.01 µM): 60.3%; viability, T/C (second compound 1 µM, first compound 0.000316 µM): 90.6%; viability, T/C (second compound 1 µM, first compound 0.001 µM): 93.5%; viability, T/C (second compound 1 µM, first compound 0.00316 µM): 84.2%; viability, T/C (second compound 1 µM, first compound 0.01 µM): 62%; viability, T/C (second compound 3.16 µM, first compound 0.000316 µM): 24.8%; viability, T/C (second compound 3.16 µM, first compound 0.001 µM): 19.5%; viability, T/C (second compound 3.16 µM, first compound 0.00316 µM): 21%; viability, T/C (second compound 3.16 µM, first compound 0.01 µM): 14.4%; viability, T/C (second compound 10 µM, first compound 0.000316 µM): 1.41%; viability, T/C (second compound 10 µM, first compound 0.001 µM): 1.47%; viability, T/C (second compound 10 µM, first compound 0.00316 µM): 1.56%; viability, T/C (second compound 10 µM, first compound 0.01 µM): 1.49%
2 | COc1ccc([C@@H](O)c2cc(-c3ncnc4cc(N5CCOCC5)ccc34)c(F)cc2Cl)nn1 + CC(CO)NC(=O)c1cc(-c2ccc(Cl)cc2)nn(-c2cnn(C)c2)c1=O | 2060 | 1260 | 848 | 1070 | 375 | 81.3 | 89.9 | 89.3 | 89.7 | 96.9 | 119 | 66.2 | 85.8 | 53.6 | 52.6 | 62.5 | 75.7 | 35.3 | 13.8 | 87 | viability, T/C [21]: 55.5%; viability, T/C [22]: 25.4%; viability, T/C [23]: 15.4%; viability, T/C [24]: 97.1%; viability, T/C [25]: 41%; viability, T/C [26]: 41.2%; viability, T/C [27]: 13.2%; viability, T/C [28]: 64.8%; viability, T/C [29]: 50.1%; viability, T/C [30]: 30%; viability, T/C [31]: 13.5%; viability, T/C [32]: 53.3%; viability, T/C [33]: 36.9%; viability, T/C [34]: 17%; viability, T/C [35]: 13.5%
3 | O=C(C=Cn1cnc(-c2cc(C(F)(F)F)cc(C(F)(F)F)c2)n1)NNc1cnccn1 | – | – | – | – | – | – | – | – | – | – | – | – | – | – | – | – | – | – | – | – | viability, T/C (compound 0.00949 µM): 101% and 61.6% and 69.8%; viability, T/C (compound 0.03 µM): 59.3% and 45% and 45.2%; viability, T/C (compound 0.0949 µM): 40.3% and 14.9% and 16.5%; viability, T/C (compound 0.3 µM): 12.2% and 12.3% and 7.91%; viability, T/C (compound 0.949 µM): 6.89% and 8.37% and 7.72%; viability, T/C (compound 3 µM): 4.34% and 6.5% and 7.38%; IC50 (curve of compound): 49.6 nM and 21.1 nM and 24 nM
4 | COc1cc(Nc2ncc3c(n2)-c2ccc(Cl)cc2C(c2c(F)cccc2OC)=NC3)ccc1C(=O)O + Cc1ccccc1N=Nc1ccc(NC(=O)c2ccnn2C)c(C)c1 | 105 | 157 | 65.7 | < 31.6 | < 31.6 | 70.5 | 50.9 | 64.8 | 63 | 71.8 | 36.6 | 48.7 | 38.1 | 38.9 | 29.7 | 30.5 | 30.8 | 33.5 | 31.1 | 29.8 | viability, T/C [21]: 28.5%; viability, T/C [22]: 23.4%; viability, T/C [23]: 26%; viability, T/C [24]: 34.4%; viability, T/C [25]: 32.3%; viability, T/C [26]: 30.5%; viability, T/C [27]: 26.5%; viability, T/C [28]: 32.2%; viability, T/C [29]: 27.1%; viability, T/C [30]: 26.8%; viability, T/C [31]: 26.6%; viability, T/C [32]: 32.2%; viability, T/C [33]: 27.1%; viability, T/C [34]: 23.6%; viability, T/C [35]: 27.1%
5 | COc1cccc2c1C(=O)c1c(O)c3c(c(O)c1C2=O)CC(O)(C(=O)CO)CC3OC1CC(N)C(O)C(C)O1 (configuration not stated) + CC(CO)NC(=O)c1cc(-c2ccc(Cl)cc2)nn(-c2cnn(C)c2)c1=O | < 31.6 | < 31.6 | < 31.6 | < 31.6 | < 31.6 | 21.8 | 13.4 | 26.6 | 13.2 | 25 | 14.7 | 19.6 | 14.4 | 18.5 | 12.3 | 3.76 | 0.59 | 2.28 | 5.15 | 3.63 | viability, T/C [21]: 0.47%; viability, T/C [22]: 3.14%; viability, T/C [23]: 5.48%; viability, T/C [24]: 3.05%; viability, T/C [25]: 0.52%; viability, T/C [26]: 3.58%; viability, T/C [27]: 5.75%; viability, T/C [28]: 2.92%; viability, T/C [29]: 0.71%; viability, T/C [30]: 2.73%; viability, T/C [31]: 5.34%; viability, T/C [32]: 1.49%; viability, T/C [33]: 1.33%; viability, T/C [34]: 3.87%; viability, T/C [35]: 6.78%
6 | COc1cc(C2c3cc4c(cc3C(OC3OC5COC(C)OC5C(O)C3O)C3COC(=O)C23)OCO4)cc(OC)c1O (configuration not stated) + Cc1ccccc1N=Nc1ccc(NC(=O)c2ccnn2C)c(C)c1 | 298 | 243 | 219 | 149 | < 31.6 | 89.6 | 98.8 | 103 | 71.3 | 90.4 | 76.6 | 70.1 | 56.9 | 46.4 | 44.6 | 47.5 | 20.2 | 15.3 | 13.3 | 47.2 | viability, T/C [21]: 19.9%; viability, T/C [22]: 14.6%; viability, T/C [23]: 13.7%; viability, T/C [24]: 36.5%; viability, T/C [25]: 23.9%; viability, T/C [26]: 16.6%; viability, T/C [27]: 14.6%; viability, T/C [28]: 36.6%; viability, T/C [29]: 19.1%; viability, T/C [30]: 16.3%; viability, T/C [31]: 16%; viability, T/C [32]: 30.5%; viability, T/C [33]: 22.4%; viability, T/C [34]: 17.5%; viability, T/C [35]: 15.9%
